From patent US8962558B2, “Methods for reducing GnRH-positive tumor cell proliferation using the GnRH antagonist IN3” (priority 1997, dated 2015)
Square brackets hold non-standard residues; d marks the D form. Peptide text beside a SMILES is read from it. * marks the point of attachment. Tyr(3-I) = N[C@@H](Cc1ccc(O)c(I)c1)C(=O)O; pGlu = O=C1CC[C@@H](C(=O)O)N1; azaGly = NNC(=O)O; tBu = CC(C)(C)*

How the values were obtained:
[1] = tested on: human glioblastoma cell lines U-87MG or U-373MG, Kaposi sarcoma cell lines KSY-1 or KS-SLK, malignant melanoma cell line MV3 or BLM, medulloblastoma cell line …; test: Proliferation assay on cell cultures (Example 3); type: cell-based; conditions: cell lines of Example 3 treated with the substance
Method: A human cell line, such as the well known human glioblastoma cell lines U-87MG or U-373MG (Pinski et al., supra), or a human cell line such as the well known Kaposi sarcoma cell lines KSY-1 or KS-SLK (Parkash et al., 1996, New England Journal of Medicine, 335, 17, 1261-1269), or a human cell line such as the well known human malignant melanoma cell line MV3 or BLM (Goldbrunner, R. H., et al., 1996, Anticancer Research 16 (6B), 3679-87), or a human medulloblastoma cell line such as the well known cell line Daoy or D283 MED (Stockhammer et al., 1995, J. Neurosurgery, 83, 672-681), or human meningeoma cell cultures (Boyle-Wash, E., et al., 1995, Journal of Endocrinology, 145, 155-161), are cultured as previously described for the above-mentioned cell lines and then treated with a concentration of the GnRH agonist Triptorelin®, GnRH antagonist SB-75 (Cetrorelix®) or GnRH antagonist Ramorelix®. […]
In another embodiment, the above-mentioned cell lines are treated as described by Emons, G., et al., 1993, supra, and Irmer, G., 1995, supra, with a concentration of the GnRH peptide antagonist Ac-D-Nal(2)-D-4-ClPhe-D-Pal-Ser-1-MePal-D-IsopropylLys-Leu-IsopropylLys-Pro-D-AlaNH2 (also known as Ant 135-25; the Mepal portion is known as 1-Methyl-3-[3′-pyridyl]-alanine), Teverelix (also known as Antarelix®), Cetrorelix (also known as Cetrotide®), Abarelix (also known as Plenaxis®), D-63153 (also known as Ozarelix®), acyline, azaline B, antide (also known as Iturelix®), Degarelix (FE200486), Ganirelix, Nal-Glu, Orntide (also known as Ornirelix®), Elagolix, or with antagonist peptidomimetic ((2S)-2-[5-[2-(2-azabicyclo[2,2,2]oct-2-yl)-1,1-dimethyl-2-oxoethyl]-2-(3,5-dimethylphenyl)-1H-indol-3-yl]-N-(2-pyridin-4-ylethyl-)propan-1-amine (also known as “IN3”).
In another embodiment, the cell lines used above were each additionally treated with a second GnRH antagonist, namely one of the GnRH antagonists Cetrorelix®, Ant 135-25, IN3, degarelix, Antarelix®, Antide®, and Ramorelix® or alternatively with one of the GnRH antagonists that have been disclosed in U.S. Pat. Nos. 6,939,88, 6,200,957, 5,296,468, 4,851,385, 7,361,633, 7,288,517, WO/2009/106597 or PCT/EP2009/052326, U.S. Pat. Nos. 5,480,969, 5,198,533, or UK Patent GB 2 246782 B, wherein these additional treatment procedures were carried out in a manner similar to those reported in Emons et al., supra, using SB 75 (Cetrorelix®). […]

[2] = tested on: malignant gliomas U-87MG and U-373MG; test: In vivo study with tumor-implanted nude mice (Example 4); conditions: daily dosages
Method: An effect of the treatment of tumor-implanted nude mice (Pinski et al., supra) each with one of the GnRH agonists Buserelin, Triptorelin, Goserelin, and Leuprorelin and each with one of the GnRH antagonists Cetrorelix® (SB-75), Antarelix®, Antide®, and Ramorelix® on the growth of malignant gliomas U-87MG and U-373MG was carried out using daily dosages and controls in nude mice using analysis techniques described for the determination of the efficacy of similar peptides in Pinski et al., supra.

[3] = tested on: ovarian carcinoma cell lines; conditions: 10^−5 M, day 6; cited from earlier work
[4] = molecular target: T1, LHRH receptors in rat pituitaries (Rattus norvegicus, UniProt P30969); test: 125I-LHRH-A binding to rat pituitaries (control)
T1 construct: from tissue; host or cells: rat pituitary
T1 sequence (P30969 1-327): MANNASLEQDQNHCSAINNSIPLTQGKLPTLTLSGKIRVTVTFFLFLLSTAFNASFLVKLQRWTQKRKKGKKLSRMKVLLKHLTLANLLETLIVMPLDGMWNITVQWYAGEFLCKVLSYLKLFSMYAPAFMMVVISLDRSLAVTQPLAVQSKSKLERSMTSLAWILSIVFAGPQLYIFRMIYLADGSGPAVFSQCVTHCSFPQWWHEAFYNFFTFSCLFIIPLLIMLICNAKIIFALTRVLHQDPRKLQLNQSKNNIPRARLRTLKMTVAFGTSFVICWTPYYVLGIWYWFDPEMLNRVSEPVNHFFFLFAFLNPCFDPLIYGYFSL
Method: (§1) GnRH receptors in melanoma cells have been analyzed also in terms of binding parameters.
(§2) Binding characteristics were evaluated from displacement curves as described in Materials and Methods.

[5] = molecular target: T2, LHRH receptors in BLM melanoma cells (Homo sapiens, UniProt P30968); test: 125I-LHRH-A binding to BLM cell membranes
T2 construct: endogenous in cells; host or cells: BLM human melanoma cells (membranes)
T2 sequence (P30968 1-328): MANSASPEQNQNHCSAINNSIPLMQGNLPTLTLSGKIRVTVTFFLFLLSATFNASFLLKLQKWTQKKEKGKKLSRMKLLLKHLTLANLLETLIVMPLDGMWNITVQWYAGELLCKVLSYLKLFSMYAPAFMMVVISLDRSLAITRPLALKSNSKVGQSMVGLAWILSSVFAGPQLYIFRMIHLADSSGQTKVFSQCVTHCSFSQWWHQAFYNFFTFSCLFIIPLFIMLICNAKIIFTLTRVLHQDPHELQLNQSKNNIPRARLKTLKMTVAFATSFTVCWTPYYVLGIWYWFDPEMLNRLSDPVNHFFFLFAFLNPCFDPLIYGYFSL
Method: as §1, §2

[6] = molecular target: T3, LHRH receptors in Me15392 melanoma cells (Homo sapiens, UniProt P30968); test: 125I-LHRH-A binding to Me15392 cell membranes
T3 construct: endogenous in cells; host or cells: Me15392 human melanoma cells (membranes)
T3 sequence (P30968 1-328): T2 sequence (P30968 1-328)
Method: as §1, §2

[7] = tested on: BLM human melanoma cells; test: Proliferation of BLM human melanoma cells (Example 20); type: cell-based; conditions: 5×10^−5M
From the text: The effects of the GnRH agonist (D-Lys6)-GnRH, Gossypol, the combination of D-Lys6-GnRH and racemic Gossypol, and a conjugate of (D-Lys6)-GnRH, and racemic Gossypol alone on the proliferation of BLM human melanoma cells are depicted in FIG. 20 (A), (B) and (C), respectively. Results are expressed as mean cell number per plate±SE. *, p<0.05 vs. control (C).

[8] = tested on: small cell lung carcinoma cell lines NCI-H1688, NCI-H1417, NCI-H1672, NCI-H1836, DMS-79, DM-553, DMS-114, SW-1271, NCI-H2227, NCI-HI1963, SHP-77 and H-69 AR; test: Proliferation assay on small cell lung carcinoma cell lines (Example 3); type: cell-based, human; conditions: small cell lung carcinoma cell lines treated with the substance
Method: In another embodiment, the small cell lung carcinoma cell lines NCI-H1688, NCI-H1417, NCI-H1672, NCI-H1836, DMS-79, DM-553, DMS-114, SW-1271, NCI-H2227, NCI-HI1963 and SHP-77 in addition to the multidrug-resistant small cell lung carcinoma cell line H-69 AR, are cultured as described above and then treated as described by Emons, G., et al., 1993, supra, and Irmer, G., 1995, supra, with various concentrations of the GnRH agonists (D-Lys6)-GnRH, Lutrelin, Histrelin, Nafarelin, Azagly-Nafarelin, Deslorelin, Cystorelin, Decapeptyl, Gonadorelin, GnRH, D-Lys(6)-GnRH II, Lamprey GnRH II, (D-Lys6)-Lamprey GnRH, (D-Lys6)-Lamprey GnRH II and Lamprey GnRH III.
In another embodiment, the small cell lung carcinoma cell lines NCI-H1688, NCI-H1417, NCI-H1672, NCI-H1836, DMS-79, DM-553, DMS-114, SW-1271, NCI-H2227, NCI-HI1963 and SHP-77 in addition to the multidrug-resistant small cell lung carcinoma cell line H-69 AR, are cultured as described above for the above-mentioned cell lines, and then treated as described by Emons, G., et al., 1993, supra, and Irmer, G., 1995, supra, with a concentration of the GnRH antagonist Cetrorelix (also known as Cetrotide®) or with a GnRH peptide antagonist Ac-D-Nal(2)-D-4-ClPhe-D-Pal-Ser-1-MePal-D-IsopropylLys-Leu-IsopropylLys-Pro-D-AlaNH2 wherein Mepal is 1-Methyl-3-[3′-pyridyl]-alanine or Ant 135-25 (also known as Ac-D-Nal(2)-D-4-Cl-Phe-D-Pal-Ser-1-MePal-D-IsopropylLys-Leu-IsopropylLys-Pro-D-AlaNH2), Teverelix (also known as Antarelix®), Cetrorelix (also known as Cetrotide®), Abarelix (also known as Plenaxis®), D-63153 (also known as Ozarelix®), acyline, azaline B, antide (also known as Iturelix®), Degarelix (FE200486), Ganirelix, Nal-Glu, Orntide (also known as Ornirelix®) or with antagonist peptidomimetic ((2S)-2-[5-[2-(2-azabicyclo[2,2,2]oct-2-yl)-1,1-dimethyl-2-oxoethyl]-2-(3,5-dimethylphenyl)-1H-indol-3-yl]-N-(2-pyridin-4-ylethyl-)propan-1-amine (also known as “IN3”).

CC(C)C[C@H](NC(=O)[C@@H](Cc1c[nH]c2ccccc12)NC(=O)[C@H](Cc1ccc(O)cc1)NC(=O)[C@H](CO)NC(=O)[C@H](Cc1c[nH]c2ccccc12)NC(=O)[C@H](Cc1c[nH]cn1)NC(=O)[C@@H]1CCC(=O)N1)C(=O)N[C@@H](CCCNC(=N)N)C(=O)N1CCC[C@H]1C(=O)NCC(N)=O [Triptorelin®]
anti-proliferative effects in tumor cells [1]: Significant anti-proliferative effects
growth of malignant gliomas [2]: Significant growth-inhibiting effects
inhibition of proliferation [3]: 40%

CC(C)C[C@H](NC(=O)[C@@H](COC(C)(C)C)NC(=O)[C@H](Cc1ccc(O)c(I)c1)NC(=O)[C@H](CO)NC(=O)[C@H](Cc1c[nH]c2ccccc12)NC(=O)[C@H](Cc1c[nH]cn1)NC(=O)[C@@H]1CCC(=O)N1)C(=O)N[C@@H](CCCNC(=N)N)C(=O)N1CCC[C@H]1C(=O)NNC(N)=O [^125I-LHRH-A] ([pGlu]HWS[Tyr(3-I)][dS](tBu)LRP[azaGly]-NH2; C-terminus assumed)
^125I-LHRH-A binding Capacity [4]: 70-100 fmoles/mg protein
^125I-LHRH-A binding Capacity [5]: 150-200 fmoles/mg protein
^125I-LHRH-A binding Capacity [6]: 200-250 fmoles/mg protein

(D-Lys6)-GnRH
inhibition of cellular proliferation versus controls [7]: 39%
anti-proliferative effects in tumor cells [1]: Significant anti-proliferative effects
anti-proliferative effects in tumor cells [8]: Significant anti-proliferative effects
